Laboratory results published in paper PMC9320910, “Inhibition of Microtubule Affinity Regulating Kinase 4 by Metformin: Exploring the Neuroprotective Potential of Antidiabetic Drug through Spectroscopic and Computational Approaches” (Molecules, 2022).
pKd: −log10 of the molar value.

Biological target: T1, Microtubule affinity regulating kinase 4 (MARK4) (Homo sapiens, UniProt Q96L34)
T1 sequence (Q96L34 1-752): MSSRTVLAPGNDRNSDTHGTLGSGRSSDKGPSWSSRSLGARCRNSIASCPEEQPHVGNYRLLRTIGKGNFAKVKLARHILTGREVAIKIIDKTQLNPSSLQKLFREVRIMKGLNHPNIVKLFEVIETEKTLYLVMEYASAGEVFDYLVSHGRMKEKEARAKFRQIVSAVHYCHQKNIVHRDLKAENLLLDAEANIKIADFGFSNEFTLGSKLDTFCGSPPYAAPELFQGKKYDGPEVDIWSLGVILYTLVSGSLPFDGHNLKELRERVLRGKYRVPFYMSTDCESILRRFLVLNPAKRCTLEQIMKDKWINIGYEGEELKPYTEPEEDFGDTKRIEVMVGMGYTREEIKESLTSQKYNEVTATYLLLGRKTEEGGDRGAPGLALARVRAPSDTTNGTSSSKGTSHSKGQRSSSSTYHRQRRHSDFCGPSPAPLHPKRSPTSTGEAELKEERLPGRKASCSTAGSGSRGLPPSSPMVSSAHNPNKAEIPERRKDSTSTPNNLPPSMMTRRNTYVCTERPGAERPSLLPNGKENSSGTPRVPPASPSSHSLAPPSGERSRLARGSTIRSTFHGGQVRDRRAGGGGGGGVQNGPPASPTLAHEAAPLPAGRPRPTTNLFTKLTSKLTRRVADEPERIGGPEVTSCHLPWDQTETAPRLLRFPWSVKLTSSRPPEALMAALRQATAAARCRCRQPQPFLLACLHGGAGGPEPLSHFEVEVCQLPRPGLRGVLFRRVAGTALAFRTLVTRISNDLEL
Test: intrinsic fluorescence quenching (modified Stern-Volmer); supported by malachite green ATPase assay of MARK4 (IC50 =[…])
Type: binding

**Q.** With `CN(C)C(=N)N=C(N)N` [Mtf, N,N-dimethylbiguanide] as the molecule, how does the pKd read?
**A.** 5.78
